Experimental data from patent publication US11249094B2, “Astrocyte traumatome and neurotrauma biomarkers” (THE REGENTS OF THE UNIVERSITY OF CALIFORNIA, priority 2015, dated 2022).

Tested on: Trauma-released GFAP upper and lower BDPs
Test: GFAP breakdown products in conditioned medium of severely stretched astrocyte cultures with protease inhibitors (immunoblot)
Type: cell-based, human
Details: 48 hour post-injury, DAKO anti-GFAP polyclonal antibody immunoblot
Procedure: Human astrocytes were isolated from 16-18 week donated fetal neocortical brain specimen, purified and then differentiated on deformable membranes (Wanner, 2012). Cell membrane wounding/compromise, mechanoporation (Barbee, 2005), was determined using Propidium iodide (PI) uptake in living cultures accompanied by nuclear shape assessment (middle picture, stained nuclei, Hoechst stained after fixation, with little pink dots, nucleoli that are PI-stained). Cell death was determined by PI uptake accompanied by condensed nuclei (pyknotic nuclei with compacted chromatin and bright Hoechst and PI stains). Significant percent of cell integrity compromise is shown 30 min post-injury (left graph) while significant cell death was present two days post-injury (bars on the right).
In order to capture the full range of signal intensity, signals from multiple exposures of immunoblots were densitometrically measured (optical densities) and scaled to match a single exposure.
Shown in FIG. 25 are two film exposures of GFAP, upper and lower breakdown products 48 hour post-injury in conditioned medium samples using the DAKO anti-GFAP polyclonal antibody. Severely stretched and unstretched cultures received either no drug, calpain inhibitor PD150606 (100 μM, “Cali”) or pan-caspase inhibitor Z-VAD FMK (8.8 μM, “Casi”). […]

Compound | Trauma-released GFAP upper and lower BDPs in conditioned medium (8.8 μM) | Trauma-released GFAP upper and lower BDPs in conditioned medium (100 μM)
Z-VAD FMK | reduced | –
O=C(O)/C(S)=C/c1ccc(I)cc1 [PD150606] | – | reduced
